In brackets after ≈: the same amount, converted by molar mass. Like-named read-outs stand apart in the source and are kept apart here.
Key:
[1] = DPPH radical scavenging assay; details: absorbance at 517 nm after 30 min
Procedure: In TB, oxidative stress may result in tissue inflammation due to anti-TB drugs. The synthesised compounds have shown promising anti-TB activity and have the potential to develop as lead compounds. Therefore, it is necessary to evaluate the synthesised compounds for their antioxidant activity. Antioxidant activities of the synthesised compounds were measured using 2,2-diphenyl-1-picrylhydrazyl (DPPH) radical scavenging assay. DPPH radical scavenging activity is the most commonly used method for screening the antioxidant activities of the various natural as well as synthetic antioxidants. A lower IC50 value indicates greater antioxidant activity. […]
(§1) completion of starting material and formation of polar spot. The reaction mixture was concentrated to dry to give 7a-7d, used directly in next step.
(§2) 1.2. In-vitro Mtb MABA assay
(§3) Briefly, the inoculum was prepared from fresh LJ medium re -suspended in 7H9-S medium (7H9 broth, 0.1% casitone, 0.5% glycerol, supplemented oleic acid, albumin, dextrose, and catalase [OADC]), adjuste d to an OD590 1.0, and diluted 1:20; 100 µl was used as inoculum. Each drug stock solution was thawed and diluted in 7H9 -S at four-fold the final highest concentration tested. Serial two-fold dilutions of each drug were prepared directly in a sterile 96 -well microtiter plate using 100 µl 7H9 -S. A growth control containing no antibiotic and a sterile control were also prepared on each plate. Sterile water was added to all perimeter wells to avoid evaporation during the incubation. The plate was covered, seal ed in plastic bags and incubated at 37 °C in normal atmosphere. After 7 days incubation, 30 µl of Alamar blue solution was added to each well, and the plate was re -incubated overnight. A change in colour from blue (oxidised state) to pink (reduced) indicat ed the growth of bacteria, and the MIC was defined as the lowest concentration of drug that prevented this change in colour. […]
(§4) the concentration of […]. After 72 h of exposure, viability was assessed on the basis of cellular conversion of MTT into a formazan product using the Promega Cell Titer 96 non - radioactive cell proliferation assay.
(§5) 1.4. DPPH radical scavenging activity
(§6) The hydrogen atom or electron donation ability of some compounds were measured from the bleaching of the purple colored methanol solution of […] (DPPH). The spectrophotometric assay uses the stable radical DPPH as a reagent. 1 mL of various concentrations of the test compounds (5, 10, 25, 50 and 100 μg/mL) in methanol was added to 4 mL of 0.004% (w/v) methanol solution of DPPH. The reaction mixture was incubated at 37 °C.
(§7) The scavenging activity on DPPH was determined by measuring the absorbance at 517 nm after 30 min. All tests were performed in triplicate and the mean values were entered. The percent of inhibition (I %) of free radical production from DPPH was calculated by the following equation % of scavenging = [(A control – A sample)/ […]]. Where, A control is the […]

Mtb H37Rv (ATCC27294) = experiment: In vitro anti-TB activity (MIC) against Mtb H37Rv; format: cell-based, Mycobacterium tuberculosis; details: for MIC: Mycobacterium tuberculosis, read-out: Anti-TB (MIC)
[2] = In vitro cytotoxicity, MTT assay; format: cell-based, human; details: human, A549 cells, read-out: Human cell lines A549 IC50 approximation
Procedure: (§8) The safety profile of the active hybrids was also accessed by testing in vitro cytotoxicity against human cell-line A549 cells at 50 μg/mL concentration by (4,5-dimethylthiazol-2-yl)-2,5-diphenyltetrazolium bromide (MTT) assay. […]
as §1, §2, §3, §4, §5, §6, §7

[3] = test system: human cell-line A549 cells; experiment: In vitro cytotoxicity, MTT assay; format: cell-based; details: 50 μg/mL, 72 h exposure
Procedure: as §8, §1, §2, §3, §4, §5, §6, §7

[4] = Mtb H37Rv, most active compounds tested in triplicates

## O=C1O[C@H]([C@@H](O)CO)C(O)=C1O [Ascorbic acid, reference compound]
[1]
  DPPH IC50: 12.7 µg/mL

## CCOC(=O)c1cc2cc(N3CCN(S(=O)(=O)c4ccc([N+](=O)[O-])cc4[N+](=O)[O-])CC3)ccc2o1 [Compound 4a, ethyl 5-(4-(2,4-dintrobenzenesulfonyl)piperazin-1-yl)benzofuran-2-carboxylate]
Mtb H37Rv (ATCC27294); [4]
  Anti-TB (MIC): 0.78 µg/mL
Mtb H37Rv (ATCC27294)
  MIC: 0.78 ± 0.36 µg/mL (≈ 1.55 µM)
[2]
  IC50 at 72 h: > 50 µg/mL
[3]
  % Cell inhibition at 50 μg/mL: 20.80%
[1]
  DPPH IC50: 15.25 µg/mL

## CCOC(=O)c1cc2cc(N3CCN(C(=O)CNS(=O)(=O)c4ccc([N+](=O)[O-])cc4[N+](=O)[O-])CC3)ccc2o1 [Compound 4b, ethyl 5-(4-(2-(2,4-dinitrophenylsulfonamido)acetyl)piperazin-1-yl)benzofuran-2-carboxylate]
Mtb H37Rv (ATCC27294)
  MIC: 3.12 ± 1.47 µg/mL (≈ 5.56 µM)
[2]
  IC50 at 72 h: > 50 µg/mL
[3]
  % Cell inhibition at 50 μg/mL: 37.41%
[1]
  DPPH IC50: 50.33 µg/mL

## CCOC(=O)c1cc2cc(N3CCN(C(=O)CCCNS(=O)(=O)c4ccc([N+](=O)[O-])cc4[N+](=O)[O-])CC3)ccc2o1 [Compound 4d, ethyl 5-(4-(4-(2,4-dinitrophenylsulfonamido)butanoyl)piperazin-1-yl) benzofuran-2-carboxylate]
Mtb H37Rv (ATCC27294)
  MIC: 1.56 ± 0.36 µg/mL (≈ 2.65 µM)
[2]
  IC50 at 72 h: > 50 µg/mL
[3]
  % Cell inhibition at 50 μg/mL: 35.95%
[1]
  DPPH IC50: 33.50 µg/mL

## CCOC(=O)c1cc2cc(N3CCN(C(=O)C4CCN(S(=O)(=O)c5ccc([N+](=O)[O-])cc5[N+](=O)[O-])CC4)CC3)ccc2o1 [Compound 4e, ethyl 5-(4-(1-((2,4-dinitrophenyl)sulphonyl)piperidine-4-carbonyl)piperazin-1-yl)benzofuran-2-carboxylate]
Mtb H37Rv (ATCC27294)
  MIC: 1.56 ± 0.97 µg/mL (≈ 2.53 µM)
[2]
  IC50 at 72 h: > 50 µg/mL
[3]
  % Cell inhibition at 50 μg/mL: 18.95%
[1]
  DPPH IC50: 45.21 µg/mL

## CCOC(=O)c1cc2cc(N3CCN(C(=O)C4CCCN(S(=O)(=O)c5ccc([N+](=O)[O-])cc5[N+](=O)[O-])C4)CC3)ccc2o1 (stereo not drawn) [Compound 4f, ethyl 5-(4-(1-((2,4-dinitrophenyl)sulphonyl)piperidine-3-carbonyl)piperazin-1-yl)benzofuran-2-carboxylate]
Mtb H37Rv (ATCC27294)
  MIC: 1.56 ± 0.73 µg/mL (≈ 2.53 µM)
[2]
  IC50 at 72 h: > 50 µg/mL
[3]
  % Cell inhibition at 50 μg/mL: 22.75%
[1]
  DPPH IC50: 39.01 µg/mL

## CCOC(=O)c1cc2cc(N3CCN(C(=O)[C@@H]4CCCN4S(=O)(=O)c4ccc([N+](=O)[O-])cc4[N+](=O)[O-])CC3)ccc2o1 [Compound 4g, (S)-ethyl 5-(4-(1-((2,4-dinitrophenyl)sulphonyl)pyrrolidine-2-carbonyl)piperazin-1-yl)benzofuran-2-carboxylate]
Mtb H37Rv (ATCC27294)
  MIC: 6.25 µg/mL (≈ 10.4 µM)
[2]
  IC50 at 72 h: > 50 µg/mL
[3]
  % Cell inhibition at 50 μg/mL: 29.64%
[1]
  DPPH IC50: 55.25 µg/mL

## CCOC(=O)c1cc2cc(N3CCN(C(=O)[C@H]4CCCN4S(=O)(=O)c4ccc([N+](=O)[O-])cc4[N+](=O)[O-])CC3)ccc2o1 [Compound 4h, (R)-ethyl 5-(4-(1-((2,4-dinitrophenyl)sulphonyl)pyrrolidine-2-carbonyl)piperazin-1-yl)benzofuran-2-carboxylate]
Mtb H37Rv (ATCC27294)
  MIC: > 25 µg/mL
[2]
  IC50 at 72 h: > 50 µg/mL
[3]
  % Cell inhibition at 50 μg/mL: 33.08%
[1]
  DPPH IC50: 49.75 µg/mL

## CCOC(=O)c1cc2cc(N3CCN(C(=O)C4CCN(S(=O)(=O)c5ccc([N+](=O)[O-])cc5[N+](=O)[O-])C4)CC3)ccc2o1 (stereo not drawn) [Compound 4i, ethyl 5-(4-(1-((2,4-dinitrophenyl)sulphonyl)pyrrolidine-3-carbonyl)piperazin-1-yl)benzofuran-2-carboxylate]
Mtb H37Rv (ATCC27294)
  MIC: 6.25 µg/mL (≈ 10.4 µM)
[2]
  IC50 at 72 h: > 50 µg/mL
[3]
  % Cell inhibition at 50 μg/mL: 19.38%
[1]
  DPPH IC50: 52.44 µg/mL

## CCOC(=O)c1cc2cc(N3CCN(C(=O)C(C)(C)NS(=O)(=O)c4ccc([N+](=O)[O-])cc4[N+](=O)[O-])CC3)ccc2o1 [Compound 4j, ethyl 5-(4-(2-(2,4-dinitrophenylsulfonamido)-2-methylpropanoyl)piperazin-1-yl)benzofuran-2-carboxylate]
Mtb H37Rv (ATCC27294); [4]
  Anti-TB (MIC): 0.78 µg/mL
Mtb H37Rv (ATCC27294)
  MIC: 0.78 ± 0.48 µg/mL (≈ 1.32 µM)
[2]
  IC50 at 72 h: > 50 µg/mL
[3]
  % Cell inhibition at 50 μg/mL: 39.28%
[1]
  DPPH IC50: 20.43 µg/mL

## CCOC(=O)c1cc2cc(N3CCN(C(=O)C(NS(=O)(=O)c4ccc([N+](=O)[O-])cc4[N+](=O)[O-])c4ccccc4)CC3)ccc2o1 (stereo not drawn) [Compound 4k, ethyl 5-(4-(2-(2,4-dinitrophenylsulfonamido)-2-phenylacetyl)piperazin-1-yl) benzofuran-2-carboxylate]
Mtb H37Rv (ATCC27294)
  MIC: > 25 µg/mL
[2]
  IC50 at 72 h: > 50 µg/mL
[3]
  % Cell inhibition at 50 μg/mL: 22.55%
[1]
  DPPH IC50: 45.87 µg/mL

## NC(=O)c1cc2cc(N3CCN(S(=O)(=O)c4ccc([N+](=O)[O-])cc4[N+](=O)[O-])CC3)ccc2o1 [Compound 4m, 5-(4-((2,4-dinitrophenyl)sulphonyl)piperazin-1-yl)benzofuran-2-carboxamide]
Mtb H37Rv (ATCC27294)
  MIC: 25 µg/mL (≈ 52.6 µM)
[2]
  IC50 at 72 h: > 50 µg/mL
[3]
  % Cell inhibition at 50 μg/mL: 23.65%
[1]
  DPPH IC50: 45.44 µg/mL

## O=C(Nc1ccccc1)c1cc2cc(N3CCN(S(=O)(=O)c4ccc([N+](=O)[O-])cc4[N+](=O)[O-])CC3)ccc2o1 [Compound 4n, 5-(4-((2,4-dinitrophenyl)sulphonyl)piperazin-1-yl)-N-phenylbenzofuran-2-carboxamide]
Mtb H37Rv (ATCC27294)
  MIC: 3.12 ± 1.1 µg/mL (≈ 5.66 µM)
[2]
  IC50 at 72 h: > 50 µg/mL
[3]
  % Cell inhibition at 50 μg/mL: 27.98%
[1]
  DPPH IC50: 40.64 µg/mL

## O=C(c1cc2cc(N3CCN(S(=O)(=O)c4ccc([N+](=O)[O-])cc4[N+](=O)[O-])CC3)ccc2o1)N1CCCCC1 [Compound 4o, (5-(4-((2,4-dinitrophenyl)sulphonyl)piperazin-1-yl)benzofuran-2-yl) (piperidin-1-yl)methanone]
Mtb H37Rv (ATCC27294); [4]
  Anti-TB (MIC): 1.56 µg/mL
Mtb H37Rv (ATCC27294)
  MIC: 1.56 ± 0.36 µg/mL (≈ 2.87 µM)
[2]
  IC50 at 72 h: > 50 µg/mL
[3]
  % Cell inhibition at 50 μg/mL: 31.58%
[1]
  DPPH IC50: 19.27 µg/mL

## CN1CCN(C(=O)c2cc3cc(N4CCN(S(=O)(=O)c5ccc([N+](=O)[O-])cc5[N+](=O)[O-])CC4)ccc3o2)CC1 [Compound 4p, (5-(4-((2,4-dinitrophenyl)sulphonyl)piperazin-1-yl)benzofuran-2-yl)(4-methylpiperazin-1-yl) methanone]
Mtb H37Rv (ATCC27294)
  MIC: 6.25 µg/mL (≈ 11.2 µM)
[2]
  IC50 at 72 h: > 50 µg/mL
[3]
  % Cell inhibition at 50 μg/mL: 30.18%
[1]
  DPPH IC50: 48.66 µg/mL

## CC[C@@H](CO)NCCN[C@@H](CC)CO [Ethambutol, reference compound]
Mtb H37Rv (ATCC27294); [4]
  Anti-TB (MIC): 1.56 µg/mL
  MIC: 1.56 ± 0.76 µg/mL (≈ 7.64 µM)

## NNC(=O)c1ccncc1 [Isoniazid, reference compound]
Mtb H37Rv (ATCC27294); [4]
  Anti-TB (MIC): 0.05 µg/mL
  MIC: 0.05 ± 0.02 µg/mL (≈ 0.365 µM)

## CO[C@H]1/C=C/O[C@@]2(C)Oc3c(C)c(O)c4c(O)c(c(/C=N/N5CCN(C)CC5)c(O)c4c3C2=O)NC(=O)/C(C)=C\C=C\[C@H](C)[C@H](O)[C@@H](C)[C@@H](O)[C@@H](C)[C@H](OC(C)=O)[C@@H]1C [Rifampicin, reference compound]
Mtb H37Rv (ATCC27294); [4]
  Anti-TB (MIC): 0.1 µg/mL
  MIC: 0.1 ± 0.04 µg/mL (≈ 0.122 µM)

Source: PMC8330757, “Design and characterisation of piperazine-benzofuran integrated dinitrobenzenesulfonamide as Mycobacterium tuberculosis H37Rv strain inhibitors” (Journal of Enzyme Inhibition and Medicinal Chemistry, 2021)
